Target: tau (Homo sapiens, UniProt P10636)
Assay: MCE Phenols Library screening, tau biosensor cell seeding assay (AvZ)
Assay type: cell-based
Settings: for Z repl 1 / Z Repl 2: Z score; for Z repl 1 / raw data 1: replicate 1; for Z Repl 2 / raw data 2: replicate 2
[1] = average Z score of the two replicates, tau biosensor seeding, MCE Phenols Library screen
[2] = average Z score of the two replicates, MCE Phenols Library screen
[3] = average puncta of the two replicates
[4] = average Z score of two replicates, Phenols Library screen
[5] = average Z score of the two replicates, tau seeding

Sequence of tau (P10636 623-695 limits assumed): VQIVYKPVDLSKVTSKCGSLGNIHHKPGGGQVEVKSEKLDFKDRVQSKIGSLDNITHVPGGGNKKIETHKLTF

## CC(C)=CCc1cc2c(=O)cc(-c3ccc(O)cc3)oc2cc1O [Licoflavone A]
  Z repl 1: 1.035
  Z Repl 2: 0.525
[1]
  av Z: 0.78
Average of raw data 1 and 2
  av puncta: 28570.9
puncta
  raw data 1: 38768.9
  raw data 2: 18372.9

## Engeletin
  Z repl 1: -1.222
  Z Repl 2: -0.399
[2]
  av Z: -0.81
Average of raw data 1 and 2
  av puncta: 10092.3
puncta
  raw data 1: 11684.3
  raw data 2: 8500.41

## O=C1C[C@@H](c2ccc(O)c(O)c2)Oc2cc(O)cc(O)c21 [Eriodictyol]
  Z repl 1: -0.756
  Z Repl 2: 0.192
[2]
  av Z: -0.282
[3]
  av puncta: 16042.6
Raw puncta
  raw data 1: 17267.7
  raw data 2: 14817.6

## Oc1cc(O)c2cc(O)c(-c3cc(O)c(O)c(O)c3)[o+]c2c1.[Cl-] [Delphinidin (chloride)]
  Z Repl 2: -0.674
[2]
  av Z: -1.417
Average of raw data 1 and 2
  av puncta: 2997.99
puncta
  raw data 1: 426.071
  raw data 2: 5569.91

## O=C(OC[C@H]1OC(OC(=O)c2cc(O)c(O)c(O)c2)[C@H](OC(=O)c2cc(O)c(O)c(O)c2)[C@@H](OC(=O)c2cc(O)c(O)c(O)c2)[C@@H]1O)c1cc(O)c(O)c(O)c1 (stereo partly drawn) [1,2,3,6-Tetragalloylglucose]
  Z repl 1: -1.751
  Z Repl 2: -1.021
[2]
  av Z: -1.386
Average of raw data 1 and 2
  av puncta: 3594.24
puncta
  raw data 1: 5324.12
  raw data 2: 1864.38

## C[C@@H]1O[C@@H](OC[C@H]2O[C@@H](OCCc3ccc(O)c(O)c3)[C@H](O)[C@@H](OC(=O)/C=C/c3ccc(O)c(O)c3)[C@@H]2O)[C@H](O)[C@H](O)[C@H]1O [Forsythoside I]
  Z repl 1: -1.102
  Z Repl 2: -0.666
[2]
  av Z: -0.884
Average of raw data 1 and 2
  av puncta: 9388.55
puncta
  raw data 1: 13120.4
  raw data 2: 5656.67

## CC(C)(c1ccc(O)cc1)c1ccc(O)cc1 [Bisphenol A]
  Z repl 1: 0.124
  Z Repl 2: 0.085
[4]
  av Z: 0.104
Average of raw data 1 and 2
  av puncta: 20753.8
puncta
  raw data 1: 27836.8
  raw data 2: 13670.7

## O=C(O)C[C@@H]1C(=O)O[C@H]2[C@@H]3OC(=O)c4cc(O)c(O)c(O)c4-c4c(cc(O)c(O)c4O)C(=O)OC[C@H]2O[C@@H](OC(=O)c2cc(O)c(O)c(O)c2)[C@@H]3OC(=O)c2cc(O)c(O)c3c2[C@H]1[C@H](O)C(=O)O3 [Chebulagic acid]
  Z repl 1: -2.151
[2]
  av Z: -1.662
Average of raw data 1 and 2
  av puncta: 382.845
puncta
  raw data 1: 523.863
  raw data 2: 241.827

## O=C(/C=C/c1ccc(O)c2oc(-c3ccc(O)c(O)c3)cc12)O[C@H](Cc1ccc(O)c(O)c1)C(=O)O [Salvianolic acid C]
  Z repl 1: -1.645
  Z Repl 2: -1.179
[2]
  av Z: -1.412
Average of raw data 1 and 2
  av puncta: 3386.53
puncta
  raw data 1: 6602.17
  raw data 2: 170.893

## O=C(/C=C/c1ccc(O)c(O)c1)c1ccc(O)cc1O [Butein]
  Z repl 1: -0.211
  Z Repl 2: 0.15
[4]
  av Z: -0.031
Average of raw data 1 and 2
  av puncta: 19090.8
puncta
  raw data 1: 23813.7
  raw data 2: 14367.8

## O=C1C[C@@H](c2ccc(O)c(O)c2)Oc2cc(O[C@@H]3O[C@H](CO)[C@@H](O)[C@H](O)[C@H]3O)cc(O)c21 [Eriodictyol-7-O-glucoside]
  Z repl 1: -0.303
  Z Repl 2: 0.417
[4]
  av Z: 0.057
Average of raw data 1 and 2
  av puncta: 19967.8
puncta
  raw data 1: 22716.1
  raw data 2: 17219.4

## COc1c(O)cc(O)c2c(=O)cc(-c3ccccc3)oc12 [Wogonin]
  Z repl 1: 0.851
  Z Repl 2: 1.113
[1]
  av Z: 0.982
Average of raw data 1 and 2
  av puncta: 30607.4
puncta
  raw data 1: 36560.6
  raw data 2: 24654.2

## CC(C)=CCC/C(C)=C/Cc1cc(-c2coc3cc(O)ccc3c2=O)ccc1O [Corylifol A]
  Z repl 1: 0.054
  Z Repl 2: -0.445
[4]
  av Z: -0.196
Average of raw data 1 and 2
  av puncta: 17502.5
puncta
  raw data 1: 26996.8
  raw data 2: 8008.18

## Oc1cc(O)cc(/C=C/c2c(O)cccc2O)c1 [Gnetol]
  Z repl 1: -2.02
  Z Repl 2: -1.135
[2]
  av Z: -1.577
Average of raw data 1 and 2
  av puncta: 1372.64
puncta
  raw data 1: 2096.46
  raw data 2: 648.824

## COc1cc(-c2cc(=O)c3c(O)cc(O)cc3o2)ccc1O [Chrysoeriol]
  Z repl 1: 0.623
  Z Repl 2: -0.203
[5]
  av Z: 0.21
Average of raw data 1 and 2
  av puncta: 22210.2
puncta
  raw data 1: 33824.2
  raw data 2: 10596.2

## Cc1cc(=O)oc2cc(O)cc(O)c12 [5,7-Dihydroxy-4-methylcoumarin]
  Z repl 1: 0.623
  Z Repl 2: -0.301
[5]
  av Z: 0.161
Average of raw data 1 and 2
  av puncta: 21685.4
puncta
  raw data 1: 33822.8
  raw data 2: 9548.03

## COc1ccc(-c2cc(=O)c3c(O)c(OC)c(OC)c(OC)c3o2)cc1 [Gardenin B]
  Z repl 1: 0.816
  Z Repl 2: 0.967
[1]
  av Z: 0.892
Average of raw data 1 and 2
  av puncta: 29624.1
puncta
  raw data 1: 36150
  raw data 2: 23098.1

## O=C(O)CC(O)(CC(=O)OCc1ccc(O[C@@H]2O[C@H](CO)[C@@H](O)[C@H](O)[C@H]2O)cc1)C(=O)OCc1ccc(O[C@@H]2O[C@H](CO)[C@@H](O)[C@H](O)[C@H]2O)cc1 (stereo partly drawn) [Parishin B]
  Z repl 1: 0.462
  Z Repl 2: 0.318
[5]
  av Z: 0.39
Average of raw data 1 and 2
  av puncta: 24029.7
puncta
  raw data 1: 31895.3
  raw data 2: 16164

## Alpinetin
  Z repl 1: -0.059
  Z Repl 2: -0.789
[2]
  av Z: -0.424
[3]
  av puncta: 14986.7
Raw puncta
  raw data 1: 25635
  raw data 2: 4338.39

## C[C@@H]1O[C@@H](Oc2cc(O)c3c(=O)c(O)c(-c4ccc(O)c(O)c4)oc3c2)[C@H](O)[C@H](O)[C@H]1O [Vincetoxicoside B]
  Z repl 1: -0.893
  Z Repl 2: -0.479
[2]
  av Z: -0.686
[3]
  av puncta: 11642.8
puncta
  raw data 1: 15632.1
  raw data 2: 7653.58

## Oc1cc(O)cc(/C=C/c2ccc(O)c(O)c2)c1 [Piceatannol]
  Z repl 1: -1.302
[2]
  av Z: -1.235
Average of raw data 1 and 2
  av puncta: 5506.01
puncta
  raw data 1: 10717.8
  raw data 2: 294.245

## O=C(O)c1cc(O)c2c(c1)[C@H]([C@H]1c3cccc(O)c3C(=O)c3c(O)cc(C(=O)O)cc31)c1cccc(O)c1C2=O [Sennidin B]
  Z repl 1: 0.553
  Z Repl 2: -0.073
[5]
  av Z: 0.24
Average of raw data 1 and 2
  av puncta: 22482.9
puncta
  raw data 1: 32984.9
  raw data 2: 11981

## OCCc1ccccc1 [2-Phenylethanol]
10 μM phenol in cell cultures, AD brain homogenate preincubated 16 hours, two biological replicates, positive = catalyzes seeding, negative = inhibits
  AvZ (average z score of seeding, SDs from the mean level of seeding): 0.671
  Z repl 1: 1.167
  Z Repl 2: 0.175
Average of raw data 1 and 2
  av puncta: 27499.2
puncta
  raw data 1: 40362.2
  raw data 2: 14636.1

## O=c1cc(-c2ccc(O)cc2)oc2cc(O)ccc12 [7,4'-Dihydroxyflavone]
  Z repl 1: 0.712
  Z Repl 2: -0.135
[5]
  av Z: 0.289
Average of raw data 1 and 2
  av puncta: 23112.9
puncta
  raw data 1: 34900.1
  raw data 2: 11325.8

Reference: paper PMC11784839, “Monoaminergic neurotransmitters are bimodal effectors of tau aggregation” (Science Advances, 2025)
